According to ChEMBL document CHEMBL1201862, “PubChem BioAssay data set” (2004):
Active and inactive are the calls of the source.

Columns and labels:
[1] = microbe, parasite or virus in culture; format: functional; conditions: Mycobacterium tuberculosis
[2] = A549 cell cytotoxicity, dose response, cytotoxicity control, plate reader, cherry-pick, antagonist series (AID 743412); format: functional, cell-based
[3] = target: T1, Carboxy-terminal domain RNA polymerase II polypeptide A small phosphatase 1 (Homo sapiens, UniProt Q9GZU7); assay: CTDSP1 inhibitors, concentration-response, biochemical, absorbance readout, ultra-high-throughput screen actives (AID 540297); format: functional
T1 sequence (Q9GZU7 whole entry): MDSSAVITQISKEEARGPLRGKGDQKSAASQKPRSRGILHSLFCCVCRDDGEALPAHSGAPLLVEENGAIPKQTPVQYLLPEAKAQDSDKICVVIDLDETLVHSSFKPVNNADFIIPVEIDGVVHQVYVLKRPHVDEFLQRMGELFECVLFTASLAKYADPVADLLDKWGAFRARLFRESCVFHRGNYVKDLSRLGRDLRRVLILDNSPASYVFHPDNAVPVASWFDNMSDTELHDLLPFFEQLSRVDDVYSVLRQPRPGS

[4] = target: SWI/SNF-related matrix-associated actin-dependent regulator of chromatin subfamily A member 2 (Homo sapiens, UniProt P51531); assay: Luminescence-based cell-based high throughput dose response assay to identify activators of the function of SWI/SNF related, matrix associated, actin dependent regulator of chromatin, subfamily a, member 2 (SMARCA2, BRM).; format: functional
Chain of SWI/SNF-related matrix-associated actin-dependent regulator of chromatin subfamily A member 2 (P51531 whole entry): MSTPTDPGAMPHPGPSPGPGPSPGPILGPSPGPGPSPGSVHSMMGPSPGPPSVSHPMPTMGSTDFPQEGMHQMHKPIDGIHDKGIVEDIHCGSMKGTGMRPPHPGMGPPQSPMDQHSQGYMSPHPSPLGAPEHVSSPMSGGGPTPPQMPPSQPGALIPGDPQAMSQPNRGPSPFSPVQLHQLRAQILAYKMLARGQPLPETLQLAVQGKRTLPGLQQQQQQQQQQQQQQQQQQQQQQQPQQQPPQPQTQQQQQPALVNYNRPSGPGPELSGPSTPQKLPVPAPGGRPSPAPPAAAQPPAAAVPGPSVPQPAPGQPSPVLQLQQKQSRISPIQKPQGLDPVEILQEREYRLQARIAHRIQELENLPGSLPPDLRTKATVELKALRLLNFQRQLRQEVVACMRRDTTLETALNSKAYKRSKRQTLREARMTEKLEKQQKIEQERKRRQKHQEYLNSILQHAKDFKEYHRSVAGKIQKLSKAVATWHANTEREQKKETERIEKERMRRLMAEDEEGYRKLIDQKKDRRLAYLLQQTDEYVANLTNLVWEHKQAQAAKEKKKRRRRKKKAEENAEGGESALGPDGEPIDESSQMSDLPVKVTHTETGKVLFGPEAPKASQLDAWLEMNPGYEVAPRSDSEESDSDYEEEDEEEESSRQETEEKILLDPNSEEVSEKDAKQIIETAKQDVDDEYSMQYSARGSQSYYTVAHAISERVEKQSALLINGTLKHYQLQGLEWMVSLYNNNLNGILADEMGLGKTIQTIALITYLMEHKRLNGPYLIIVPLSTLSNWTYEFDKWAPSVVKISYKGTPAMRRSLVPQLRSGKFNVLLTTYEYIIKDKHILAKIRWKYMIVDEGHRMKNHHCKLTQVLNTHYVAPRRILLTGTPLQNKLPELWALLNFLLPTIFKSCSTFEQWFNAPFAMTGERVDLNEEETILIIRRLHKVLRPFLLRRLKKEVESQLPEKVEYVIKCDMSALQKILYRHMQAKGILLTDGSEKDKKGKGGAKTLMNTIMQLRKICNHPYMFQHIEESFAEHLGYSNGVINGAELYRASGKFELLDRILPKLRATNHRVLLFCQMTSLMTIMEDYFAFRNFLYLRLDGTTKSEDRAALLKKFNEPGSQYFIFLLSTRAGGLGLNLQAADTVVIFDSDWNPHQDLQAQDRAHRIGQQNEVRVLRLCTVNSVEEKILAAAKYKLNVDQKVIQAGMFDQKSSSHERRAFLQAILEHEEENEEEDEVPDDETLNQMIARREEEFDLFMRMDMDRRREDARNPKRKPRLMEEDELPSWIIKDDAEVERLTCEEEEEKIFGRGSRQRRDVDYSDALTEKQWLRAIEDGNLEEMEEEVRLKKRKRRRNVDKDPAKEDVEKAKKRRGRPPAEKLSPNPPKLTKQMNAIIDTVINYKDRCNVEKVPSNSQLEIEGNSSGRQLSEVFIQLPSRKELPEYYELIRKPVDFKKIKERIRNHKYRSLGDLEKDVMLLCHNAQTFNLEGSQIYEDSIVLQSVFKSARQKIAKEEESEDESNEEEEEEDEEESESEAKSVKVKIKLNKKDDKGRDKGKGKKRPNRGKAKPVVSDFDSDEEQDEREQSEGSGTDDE

[5] = Counterscreen for activators of the function of SWI/SNF related, matrix associated, actin dependent regulator of chromatin, subfamily a, member 2 (SMARCA2, BRM): Luminescence-based cell-based high throughput dose response assay to identify non-selective compounds using the VP16 reporter assay.; format: functional
[6] = blockers of HIV-1 envelope-mediated cell-cell fusion – cherry-pick, dose response (AID 652057); format: functional, cell-based
[7] = viability loss in CEM21 cells – cell-based, CellTiter-Glo luminescence, cherry-picked, cytotoxicity control for viral fusion inhibitor project, dose response (AID 652042); format: functional;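 also: potency for signal decrease meaning cytotoxicity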
[8] = blockers of HIV-1 ZM109 envelope-driven cell-cell fusion – HeLa effector, CEM target cells, luciferase, cherry-pick, dose response (AID 652058); format: functional, cell-based;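 also: luciferase signal from HIV-1 Env mediated cell-cell fusion of effector and target cells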
[9] = off-target signal loss in HeLa-CEM21 co-culture – HeLa F-luc CTL cells, cherry-picked, counter-screen for HIV-1 Env fusion inhibitor project, dose response (AID 652040); format: functional, cell-based;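 also: potency for signal decrease marking cytotoxic or nonspecific inhibition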
[10] = HIV-1 AD8 envelope cell-cell fusion blockers – cherry-pick, dose response (AID 652062); format: functional, cell-based;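 also: luciferase signal from cell-cell fusion driven by HIV-1 clade B AD8 Env; potency is for inhibitors of fusion seen as a drop in luminescence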
[11] = system: HeLa; assay: viability loss in HeLa cells – cell-based, ATP luminescence, cherry-pick samples, cytotoxicity control, dose response (AID 687004); format: functional; conditions: Homo sapiens
[12] = general mammalian cell viability loss – inhibitor set, cherry-pick, set 2, cytotoxicity control for miR-122 modulator project, dose response (AID 720697); format: functional, cell-based
[13] = target: T2, Rac GTPase-activating protein 1 (Homo sapiens, UniProt Q9H0H5); assay: blockers of MgcRacGAP-driven Rac1 GTP hydrolysis – biochemical, ADP Hunter fluorescence, primary and confirmatory, confirmation (AID 624330); format: functional
T2 sequence (Q9H0H5 whole entry): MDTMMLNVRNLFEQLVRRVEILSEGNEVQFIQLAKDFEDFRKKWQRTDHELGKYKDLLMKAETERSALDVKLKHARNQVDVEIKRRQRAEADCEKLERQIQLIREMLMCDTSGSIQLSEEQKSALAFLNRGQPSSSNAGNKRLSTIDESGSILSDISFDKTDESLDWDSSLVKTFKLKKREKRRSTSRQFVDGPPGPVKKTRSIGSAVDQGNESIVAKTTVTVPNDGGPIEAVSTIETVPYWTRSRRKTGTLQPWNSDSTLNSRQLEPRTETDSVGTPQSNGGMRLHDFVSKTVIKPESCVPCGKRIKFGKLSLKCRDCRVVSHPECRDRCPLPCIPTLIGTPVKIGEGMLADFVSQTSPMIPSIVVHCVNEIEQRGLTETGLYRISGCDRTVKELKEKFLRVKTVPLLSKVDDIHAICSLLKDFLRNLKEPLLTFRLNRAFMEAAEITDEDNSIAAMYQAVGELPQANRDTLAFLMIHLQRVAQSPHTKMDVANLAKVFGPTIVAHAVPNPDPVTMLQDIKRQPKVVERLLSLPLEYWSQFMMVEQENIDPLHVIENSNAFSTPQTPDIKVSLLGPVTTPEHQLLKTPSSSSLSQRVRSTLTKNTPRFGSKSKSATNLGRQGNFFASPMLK

[14] = target: T3, DNA repair protein RAD52 homolog (Homo sapiens, UniProt P43351); format: functional, biochemical
T3 sequence (P43351 whole entry): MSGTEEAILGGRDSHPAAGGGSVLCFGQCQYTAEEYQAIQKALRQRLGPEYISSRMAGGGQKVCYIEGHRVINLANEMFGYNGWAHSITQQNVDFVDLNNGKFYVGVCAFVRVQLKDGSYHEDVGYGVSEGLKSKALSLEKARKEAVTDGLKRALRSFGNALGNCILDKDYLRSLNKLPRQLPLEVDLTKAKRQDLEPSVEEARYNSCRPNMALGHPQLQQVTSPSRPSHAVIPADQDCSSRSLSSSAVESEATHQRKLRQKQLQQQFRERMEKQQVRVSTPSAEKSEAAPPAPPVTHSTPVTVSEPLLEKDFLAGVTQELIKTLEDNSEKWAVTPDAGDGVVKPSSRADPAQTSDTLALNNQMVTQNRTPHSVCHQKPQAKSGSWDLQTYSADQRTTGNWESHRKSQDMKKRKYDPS

[15] = T. cruzi growth inhibition in host cells, dose response, cell-based, plate reader, dry powder, set 2 (AID 652275); format: functional
[16] = system: Streptococcus sp. 'group A'; assay: Streptococcus pyogenes SK(-)GAS viability under kanamycin – luminescence, BacTiterGlo, confirmation, counter-screen for streptokinase expression inhibitor project, dose response (AID 1900); format: functional, organism-based
[17] = cells; format: functional, cell-based
[18] = target: T4, Heat shock factor protein 1 (Mus musculus, UniProt P38532); assay: decrease of HSF1-responsive luciferase luminescence – cell-based, NIH3T3, dose retest, confirmation (AID 2382); format: functional;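 also: NIH3T3 fibroblasts with HSF1-driven luciferase reporter stressed by proteasome inhibitor MG132; luminescence from HSF1-driven luciferase expression after 8 hours of MG132 stress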
T4 sequence (P38532 whole entry): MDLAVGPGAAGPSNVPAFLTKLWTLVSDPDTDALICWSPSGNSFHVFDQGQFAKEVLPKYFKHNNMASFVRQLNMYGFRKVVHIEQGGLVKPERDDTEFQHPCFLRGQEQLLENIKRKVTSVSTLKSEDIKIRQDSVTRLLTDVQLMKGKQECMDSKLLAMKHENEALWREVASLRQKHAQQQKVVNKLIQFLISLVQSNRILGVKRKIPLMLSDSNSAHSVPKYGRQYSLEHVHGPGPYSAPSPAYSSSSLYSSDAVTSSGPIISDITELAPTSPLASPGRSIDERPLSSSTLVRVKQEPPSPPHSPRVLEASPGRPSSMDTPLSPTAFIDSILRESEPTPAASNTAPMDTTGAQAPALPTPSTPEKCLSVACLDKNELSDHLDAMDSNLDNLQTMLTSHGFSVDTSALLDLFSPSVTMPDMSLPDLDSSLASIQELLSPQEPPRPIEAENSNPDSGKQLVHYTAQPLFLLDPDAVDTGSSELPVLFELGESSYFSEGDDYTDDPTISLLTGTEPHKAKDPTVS

[19] = Trypanosoma cruzi growth suppression in host cells – NIH3T3 host cells, beta-gal luminescence, confirmation (AID 2044); format: functional, cell-based;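 also: intracellular parasites grown in NIH/3T3 mouse fibroblasts as host cells; luminescent beta-galactosidase reporter signal from transgenic T. cruzi replicating inside host cells; inhibitors lower the luminescence signal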
[20] = cells; format: functional, cell-based; remark: listed apart in the source
[21] = NIH3T3 cell viability loss – ATP luminescence, mouse fibroblasts, counter-screen, dose response (AID 2010); format: functional, cell-based;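 also: cells exposed to compound for about 90 hours before reading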
[22] = system: Streptococcus; assay: GAS UMAA2166 growth inhibition – luminescence, BacTiterGlo, counter-screen for streptokinase expression inhibitor project, dose response (AID 1915); format: functional, organism-based;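 also: potency for reduction of bacterial viability or growth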
[23] = target: Heat shock protein HSP 90-alpha (Homo sapiens, UniProt P07900); format: functional, organism-based
[24] = reduction of Shn3 3'UTR-driven luciferase in osteoblasts – cell-based, Clone20 osteoblasts, firefly luciferase, cherry-picked, dose response (AID 624132); format: functional;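 also: firefly luciferase luminescence from reporter carrying the Shn3 3'UTR in osteoblasts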
[25] = loss of viability in HepG2 cells – cell-based, CellTiter-Glo, cherry-picked, cytotoxicity control for Shn3 inhibitor project, dose response (AID 624134); format: functional
[26] = non-specific 3'UTR reporter inhibition in Clone20-Shn3RL – cell-based, Renilla luciferase, cherry-picked, counter-screen for Shn3 inhibitor project, dose response (AID 624133); format: functional
[27] = activation of miR-122 Renilla sensor silencing – cell-based, Huh7 psiCHECK-miR122, Renilla luciferase, cherry-picked, dose response (AID 651956); format: functional;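 also: huh7 hepatoma cells stably carrying a psiCHECK-2 miR-122 sensor plasmid; renilla luciferase signal reporting endogenous miR-122 activity after 48 h compound exposure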
[28] = general mammalian cell viability loss – activator set, cherry-pick, cytotoxicity control for miR-122 modulator project, dose response (AID 720690); format: functional, cell-based;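 also: HEK293T human cells scored for general mammalian cytotoxicity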

Cc1ccc(-n2cc(CN(C)Cc3nccn3C)c(-c3cccc(C)c3)n2)cc1
CC50 [1]: > 40 µM (active) | AC50 [2]: > 52 µM (inactive)

O=C1NC2c3c(Cl)sc(Cl)c3C(=O)C2O1 (stereo unspecified)
IC50 [3]: 3.75 µM (active) | EC50 [4]: > 91 µM (inactive) | EC50 [5]: > 91 µM (inactive)

O=C1[C@H](Cc2ccccc2)NCCCC[C@H](c2ccco2)N1Cc1ccccc1
AC50 [6]: 4.38 µM (active) | AC50 [7]: 39.9 µM (active) | AC50 [8]: 10.4 µM (active) | AC50 [9]: 7.61 µM (active) | AC50 [10]: 35.3 µM (active)

CCNC(=O)Nc1ccc2c(c1)C(=O)N(C)[C@H]1CC[C@H](CC(=O)Nc3ccccc3F)O[C@@H]1CO2
AC50 [11]: 0.264 µM (active) | AC50 [12]: 2.11 µM (active)

O=C(CN1CCCCC1)Nc1ccc(N2CCCCCC2)cc1
IC50 [13]: 126 µM (active) | AC50 [14]: 22.8 µM (active)

CC(C)N1C(=O)c2cccc(NC(=O)c3ccncc3)c2O[C@H](CN(C)Cc2ccc(Cl)cc2)[C@H]1C
AC50 [15]: 0.00096 µM (active)

CC(=O)NC(c1ccc(C)cc1)c1cc(Cl)c2cccnc2c1O (stereo unspecified)
EC50 [16]: 1.38 µM (active) | EC50 [17]: 14.7 µM (active) | EC50 [18]: 0.911 µM (active) | EC50 [19]: 0.655 µM (active) | EC50 [20]: > 350 µM (not active) | EC50 [21]: 0.763 µM (active) | EC50 [22]: 6.97 µM (active) | AC50 [23]: 3.52 µM (active) | AC50 [24]: 2.12 µM (active) | AC50 [25]: 4.67 µM (active) | AC50 [26]: 3.29 µM (active) | AC50 [27]: 37.4 µM (active) | AC50 [28]: 2.8 µM (active)

COCC(=O)Nc1ccc2c(c1)C(=O)N(C)[C@@H]1CC[C@H](CC(=O)N3CCc4ccccc4C3)O[C@H]1CO2
AC50 [12]: 9.29 µM (active) | AC50 [28]: 37 µM (active)

Cc1nc2cc(Oc3nc(NCCN(C)C)nc4ccsc34)ccc2s1
AC50 [14]: 21 µM (active)
